Assay results reported in the supplement of paper PMC6045584.
± gives the standard deviation of the averaged measurements.

Experiments:
OSI-906 [1] = compound: T1, C[C@]1(O)C[C@@H](c2nc(-c3ccc4ccc(-c5ccccc5)nc4c3)c3c(N)nccn32)C1 [OSI-906]; test: surviving fraction relative to DMSO-only wells; higher = less growth inhibition; settings: exposure time: 5 days
Outline: (§1)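 Viability was determined by CellTiter-Glo luminescence, expressed as surviving fraction normalised to the median of DMSO-only wells. The cells were log-phase tumour cell lines seeded at 250–500 per well in 384-well plates and, after 24 hours, exposed continuously for five days to inhibitors at 0.5, 1, 5, 10, 50, 100, 500 and 1000 nM. Three screens per line were run, keeping only lines with replicate Pearson r >0.7 and median Z' >0.3.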

[2] = compound: CC(=O)NCC(=O)N1[C@@H]2CC[C@H]1c1ccc(Nc3ncc(C(F)(F)F)c(NC4CCC4)n3)cc12; test: as above; settings: exposure time: 5 days
Outline: as §1

PACLITAXEL [3] = compound: T2, CC(=O)O[C@H]1C(=O)[C@@]2(C)[C@H]([C@H](OC(=O)c3ccccc3)[C@]3(O)C[C@H](OC(=O)[C@H](O)[C@@H](NC(=O)c4ccccc4)c4ccccc4)C(C)=C1C3(C)C)[C@]1(OC(C)=O)CO[C@@H]1C[C@@H]2O [PACLITAXEL]; test: as above; settings: exposure time: 5 days
Outline: as §1

CARBOPLATIN [4] = compound: T3, O=C(O)C1(C(=O)O)CCC1.[NH2-].[NH2-].[Pt+2] [CARBOPLATIN]; test: as above; settings: exposure time: 5 days
Outline: as §1

GEFITINIB = compound: COc1cc2ncnc(Nc3ccc(F)c(Cl)c3)c2cc1OCCCN1CCOCC1 [GEFITINIB]; test: as above; settings: exposure time: 5 days
Outline: as §1

[5] = compound: CC(=O)c1c(C)c2cnc(Nc3ccc(N4CCNCC4)cn3)nc2n(C2CCCC2)c1=O; test: as above; settings: exposure time: 5 days
Outline: as §1

YM155 [6] = compound: T4, COCC[n+]1c2c(n(Cc3cnccn3)c1C)C(=O)c1ccccc1C2=O [YM155]; test: as above; settings: exposure time: 5 days
Outline: as §1

CELECOXIB = compound: Cc1ccc(-c2cc(C(F)(F)F)nn2-c2ccc(S(N)(=O)=O)cc2)cc1 [CELECOXIB]; test: as above; settings: exposure time: 5 days
Outline: as §1

CAMPTOTHECIN [7] = compound: T5, CC[C@@]1(O)C(=O)OCc2c1cc1n(c2=O)Cc2cc3ccccc3nc2-1 [CAMPTOTHECIN]; test: as above; settings: exposure time: 5 days
Outline: as §1

OSI-906 [8] = compound: T1, OSI-906; test: area under dose-response curve of surviving fraction (unscaled, Aref=0) (surviving fraction x log10(nM)); higher = more resistant; settings: exposure time: 5 days; dose range 0.5-1000 nM
Outline: (§2)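 Surviving fractions were fitted by 3-parameter logistic regression in the drc R package to give dose-response survival curves. They came from tumour cell lines treated for five days with eight inhibitor concentrations from 0.5 to 1000 nM and read by CellTiter-Glo luminescence against DMSO-only wells. The area under the curve is the unscaled activity area. It was calculated over log10 dose with Aref = 0.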

[9] = compound: CC(=O)NCC(=O)N1[C@@H]2CC[C@H]1c1ccc(Nc3ncc(C(F)(F)F)c(NC4CCC4)n3)cc12; test: as above; settings: exposure time: 5 days; dose range 0.5-1000 nM
Outline: as §2

PACLITAXEL [10] = compound: T2, PACLITAXEL; test: as above; settings: exposure time: 5 days; dose range 0.5-1000 nM
Outline: as §2

CARBOPLATIN [11] = compound: T3, CARBOPLATIN; test: as above; settings: exposure time: 5 days; dose range 0.5-1000 nM
Outline: as §2

[12] = compound: CC(=O)c1c(C)c2cnc(Nc3ccc(N4CCNCC4)cn3)nc2n(C2CCCC2)c1=O; test: as above; settings: exposure time: 5 days; dose range 0.5-1000 nM
Outline: as §2

YM155 [13] = compound: T4, YM155; test: as above; settings: exposure time: 5 days; dose range 0.5-1000 nM
Outline: as §2

CAMPTOTHECIN [14] = compound: T5, CAMPTOTHECIN; test: as above; settings: exposure time: 5 days; dose range 0.5-1000 nM
Outline: as §2

Test System HT1080 SOFT TISSUE has a surviving fraction (OSI-906 [1]; 0.5 nM) of 1 ± 0.042, a surviving fraction (OSI-906 [1]; 1 nM) of 1.02 ± 0.023 and a surviving fraction (OSI-906 [1]; 5 nM) of 1.02 ± 0.021. The surviving fraction (OSI-906 [1]; 10 nM) was 1 ± 0.017, the surviving fraction (OSI-906 [1]; 50 nM) was 0.979 ± 0.039 and the surviving fraction (OSI-906 [1]; 100 nM) was 0.921 ± 0.027. It also gave a surviving fraction (OSI-906 [1]; 500 nM) of 0.899 ± 0.03, a surviving fraction (OSI-906 [1]; 1000 nM) of 0.869 ± 0.057 and a surviving fraction ([2]; 0.5 nM) of 0.998 ± 0.035. It also gave a surviving fraction ([2]; 1 nM) of 0.983 ± 0.011, a surviving fraction ([2]; 5 nM) of 0.964 ± 0.05 and a surviving fraction ([2]; 10 nM) of 0.961 ± 0.031. It also gave a surviving fraction ([2]; 50 nM) of 0.66 ± 0.0067, a surviving fraction ([2]; 100 nM) of 0.404 ± 0.011 and a surviving fraction ([2]; 500 nM) of 0.303 ± 0.004. It also gave a surviving fraction ([2]; 1000 nM) of 0.281 ± 0.0093, a surviving fraction (PACLITAXEL [3]; 0.5 nM) of 0.772 ± 0.034 and a surviving fraction (PACLITAXEL [3]; 1 nM) of 0.533 ± 0.0091. It also gave a surviving fraction (PACLITAXEL [3]; 5 nM) of 0.133 ± 0.019, a surviving fraction (PACLITAXEL [3]; 10 nM) of 0.0517 ± 0.0035 and a surviving fraction (PACLITAXEL [3]; 50 nM) of 0.0427 ± 0.0031. For the same test system, the surviving fraction (PACLITAXEL [3]; 100 nM) was 0.031 ± 0.0017, the surviving fraction (PACLITAXEL [3]; 500 nM) was 0.0293 ± 0.0025 and the surviving fraction (PACLITAXEL [3]; 1000 nM) was 0.0317 ± 0.00058. It also gave a surviving fraction (CARBOPLATIN [4]; 0.5 nM) of 1.07 ± 0.024, a surviving fraction (CARBOPLATIN [4]; 1 nM) of 1.1 ± 0.011 and a surviving fraction (CARBOPLATIN [4]; 5 nM) of 1.09 ± 0.051. It also gave a surviving fraction (CARBOPLATIN [4]; 10 nM) of 1.09 ± 0.013, a surviving fraction (CARBOPLATIN [4]; 50 nM) of 1.03 ± 0.023 and a surviving fraction (CARBOPLATIN [4]; 100 nM) of 1.04 ± 0.044. It also gave a surviving fraction (CARBOPLATIN [4]; 500 nM) of 1.03 ± 0.058, a surviving fraction (CARBOPLATIN [4]; 1000 nM) of 1.06 ± 0.062 and a surviving fraction (GEFITINIB; 0.5 nM) of 1.05 ± 0.016. The surviving fraction (GEFITINIB; 1 nM) was 1.05 ± 0.035, the surviving fraction (GEFITINIB; 5 nM) was 1.05 ± 0.069 and the surviving fraction (GEFITINIB; 10 nM) was 1.11 ± 0.036. It also gave a surviving fraction (GEFITINIB; 50 nM) of 1.01 ± 0.029, a surviving fraction (GEFITINIB; 100 nM) of 1.03 ± 0.028 and a surviving fraction (GEFITINIB; 500 nM) of 1.042 ± 0.0056. The surviving fraction (GEFITINIB; 1000 nM) was 1.01 ± 0.034, the surviving fraction ([5]; 0.5 nM) was 0.997 ± 0.026 and the surviving fraction ([5]; 1 nM) was 1.04 ± 0.017. The surviving fraction ([5]; 5 nM) was 1.05 ± 0.017, the surviving fraction ([5]; 10 nM) was 1.03 ± 0.019 and the surviving fraction ([5]; 50 nM) was 1.022 ± 0.0036. It also gave a surviving fraction ([5]; 100 nM) of 1 ± 0.041, a surviving fraction ([5]; 500 nM) of 0.9707 ± 0.0071 and a surviving fraction ([5]; 1000 nM) of 0.958 ± 0.024. The surviving fraction (YM155 [6]; 0.5 nM) was 1.03 ± 0.021, the surviving fraction (YM155 [6]; 1 nM) was 0.954 ± 0.035 and the surviving fraction (YM155 [6]; 5 nM) was 0.433 ± 0.0064. It also gave a surviving fraction (YM155 [6]; 10 nM) of 0.237 ± 0.017, a surviving fraction (YM155 [6]; 50 nM) of 0.063 ± 0.0027 and a surviving fraction (YM155 [6]; 100 nM) of 0.0373 ± 0.0021. It also gave a surviving fraction (YM155 [6]; 500 nM) of 0.0277 ± 0.00058, a surviving fraction (YM155 [6]; 1000 nM) of 0.0297 ± 0.00058 and a surviving fraction (CELECOXIB; 0.5 nM) of 1.039 ± 0.0011. For the same test system, the surviving fraction (CELECOXIB; 1 nM) was 1.06 ± 0.011, the surviving fraction (CELECOXIB; 5 nM) was 1.038 ± 0.0067 and the surviving fraction (CELECOXIB; 10 nM) was 1.05 ± 0.014. It also gave a surviving fraction (CELECOXIB; 50 nM) of 0.995 ± 0.02, a surviving fraction (CELECOXIB; 100 nM) of 1.011 ± 0.008 and a surviving fraction (CELECOXIB; 500 nM) of 1.02 ± 0.012. For the same test system, the surviving fraction (CELECOXIB; 1000 nM) was 1 ± 0.021, the surviving fraction (CAMPTOTHECIN [7]; 0.5 nM) was 0.956 ± 0.017 and the surviving fraction (CAMPTOTHECIN [7]; 1 nM) was 0.925 ± 0.027. The surviving fraction (CAMPTOTHECIN [7]; 5 nM) was 0.739 ± 0.034, the surviving fraction (CAMPTOTHECIN [7]; 10 nM) was 0.361 ± 0.0046 and the surviving fraction (CAMPTOTHECIN [7]; 50 nM) was 0.377 ± 0.014. The surviving fraction (CAMPTOTHECIN [7]; 100 nM) was 0.26 ± 0.022, the surviving fraction (CAMPTOTHECIN [7]; 500 nM) was 0.0953 ± 0.016 and the surviving fraction (CAMPTOTHECIN [7]; 1000 nM) was 0.0837 ± 0.0075. For the same test system, the “area under dose-response curve” value (OSI-906 [8]) was 3.17, the “area under dose-response curve” value [9] was 2.39 and the “area under dose-response curve” value (PACLITAXEL [10]) was 0.5. The “area under dose-response curve” value (CARBOPLATIN [11]) was 3.51, the “area under dose-response curve” value [12] was 3.28 and the “area under dose-response curve” value (YM155 [13]) was 1.04. For the same test system, the “area under dose-response curve” value (CAMPTOTHECIN [14]) was 1.51.
